Experimental data taken from publication PMC8226722, “Comparison of Solution Chemical Properties and Biological Activity of Ruthenium Complexes of Selected β-Diketone, 8-Hydroxyquinoline and Pyrithione Ligands” (Pharmaceuticals, 2021).

Tests used:
[1] = test system: Escherichia coli K-12 AG100; test: MIC determination (CLSI broth microdilution); type: cell-based; details: Gram-negative, AG100, 18 h
Method: (§1) Wild-type Escherichia coli K-12 AG100 strain [argE3 thi-1 rpsL xyl mtl Δ(gal-uvrB) supE44] expressing the AcrAB TolC EP at its basal level and Klebsiella pneumoniae ATCC 49,619 Gram-negative strains were studied in the experiments. Staphylococcus aureus ATCC 43,300 methicillin-resistant (MRSA) strain and Enterococcus faecalis ATCC 29,212 strain were used as Gram-positive strains in the assays. MIC values of the complexes were determined in 96-well plates based on the Clinical and Laboratory Standard Institute guidelines (CLSI guidelines). The stock solutions of the compounds (dissolved in DMSO using 10 mM concentration) were diluted in 100 μL of Mueller Hinton Broth. Then 10^−4 dilution of an overnight bacterial culture in 100 μL of medium was added to each well, with the exception of the medium control wells.

[2] = test system: Klebsiella pneumoniae ATCC 49619; test: MIC determination (CLSI broth microdilution); type: cell-based; details: Gram-negative, ATCC 49619, 18 h
Method: as §1

[3] = test system: Staphylococcus aureus ATCC 43300 methicillin-resistant (MRSA); test: MIC determination (CLSI broth microdilution); type: cell-based; details: Gram-positive, MRSA ATCC 43300, 18 h
Method: as §1

[4] = test system: Enterococcus faecalis ATCC 29212; test: MIC determination (CLSI broth microdilution); type: cell-based; details: Gram-positive, ATCC 29212, 18 h
Method: as §1

[5] = biological target: ABCB1 (P-glycoprotein) efflux pump (Homo sapiens, UniProt P08183); test: Rhodamine 123 uptake/retention fluorescence assay (flow cytometry) in Colo 320 cells
Method: It is important to note, that the resistance of this cell line is primarily mediated by the overexpression of the ABC-transporter P-glycoprotein, which pumps out xenobiotics from the cytosol. […] This dye is membrane-permeable and is rapidly taken up by the cells; therefore, it can be effectively used for the screening of efflux pump inhibiting compounds. […] Then the fluorescence accumulation ratios (FAR) were calculated (Figure 1) according to the equation given in the Materials and Methods section. Verapamil was used as a reference inhibitor compound.
This fluorescence-based detection system uses verapamil (a first-generation, competitive EPI) as reference inhibitor. […] The tested compounds were added at different concentrations (2 and 20 µM; from 1 and 10 mM stock solutions, respectively) and the samples were incubated for 10 min at room temperature.
The parameters evaluated from flow cytometric experiments are forward scatter count (FSC, provides information about cell size); side scatter count (SSC, proportional to cell granularity or internal complexity); mean fluorescence of the cells (FL-1) and the computed FAR and FAR quotients (Table S1).

[6] = test system: Colo 205 chemo-sensitive human colonic adenocarcinoma cell line; test: MTT cytotoxicity assay, Colo 205; type: cell-based; details: for IC50: 72 h, MTT; for S.I. MRC-5/Colo 205: ratio of the indicated IC50 values
Method: (§2) Human colonic adenocarcinoma cell lines Colo 205 doxorubicin-sensitive (ATCC-CCL-222) and Colo 320/MDR-LRP multidrug resistant expressing ABCB1 (MDR1)-LRP (ATCC-CCL-220.1) were purchased from LGC Promochem (Teddington, UK). […] Cell lines were incubated at 37 °C, in a 5% CO2, 95% air atmosphere. The semi-adherent human colon cancer cells were detached with Trypsin-Versene (EDTA, Sigma, Steinheim, Germany) solution for 5 min at 37 °C. MRC-5 human embryonal lung fibroblast cell lines (ATCC CCL-171) were purchased from LGC Promochem. […] The cell lines were incubated at 37 °C, in a 5% CO2, 95% air atmosphere.
(§3) In the study MRC-5 non-cancerous human embryonic lung fibroblast and human colonic adenocarcinoma cell lines (doxorubicin-sensitive Colo 205 and multidrug resistant Colo 320 colonic adenocarcinoma cells) were used to determine the effect of compounds on cell growth. The effects of increasing concentrations of compounds on cell growth were tested in 96-well flat-bottomed microtiter plates. The stock solutions of the compounds were prepared in DMSO, and in the final samples the DMSO content was always lower than 1%. The compounds were diluted in a volume of 100 μL of medium.
(§4) In case of the colonic adenocarcinoma cells, the two-fold serial dilutions of compounds were prepared in 100 μL of RPMI 1640, horizontally. The semi-adherent colonic adenocarcinoma cells were treated with Trypsin-Versene (EDTA) solution. They were adjusted to a density of 1 × 10^4 cells in 100 μL of RPMI 1640 medium, and were added to each well, with the exception of the medium control wells. The final volume of the wells containing compounds and cells was 200 μL.
(§5) The culture plates were incubated at 37 °C for 72 h; at the end of the incubation period, 20 μL of MTT (Sigma) solution (from a stock solution of 5 mg/mL) were added to each well. After incubation at 37 °C for 4 h, 100 μL of sodium dodecyl sulfate (SDS) (Sigma) solution (10% in 0.01 M HCl) were added to each well and the plates were further incubated at 37 °C overnight. Cell growth was determined by measuring the optical density (OD) at 540/630 nm with Multiscan EX ELISA reader (Thermo Labsystems, Cheshire, WA, USA). […] Curves were fitted by Prism software (GraphPad Software Inc., San Diego, CA, USA) using the sigmoidal dose-response model (comparing variable and fixed slopes). The IC50 values were obtained from at least 3 independent experiments.

[7] = test system: Colo 320 multidrug resistant human colonic adenocarcinoma cell line; test: MTT cytotoxicity assay, Colo 320; type: cell-based; details: for IC50: 72 h, MTT; for S.I. MRC-5/Colo 320: ratio of the indicated IC50 values
Method: as §2, §3, §4, §5

[8] = UV-vis interaction with 1-methylimidazole, monodentate binding model of HSA; details: pH 7.4, 102 mM chloride
Method: In our previous work, the fast interaction of complexes 7 and 8 with thiol-containing low molecular mass endogenous compounds Cys, N-acetylcysteine and glutathione was found on the basis of a mass spectrometry study. The donor atoms generally coordinate at the site of the monodentate co-ligand, however, they can also displace the weakly bound bidentate ligand as well. Herein, interaction of the complexes 1–4 towards 1-methylimidazole (mim), a monodentate binding model of HSA was measured by UV-vis (Figure 7d–f).
The reactions in all cases were very fast (except complex 2 and 4), and the observed spectral changes were similar to those obtained with HSA (Figure 7a–c). There was no indication for the replacement of the bidentate ligand by 1-methylimidazole. Considering that the latter ligand binds at the coordination site of the co-ligand, maximum one complex is able to be bound to 1-methylimidazole. However, the constant spectra upon addition of 1-methylimidazole to the complex 4 could only be reached at high excess of 1-methylimidazole due to its lower tendency to interact with this model (and with HSA as well). Based on these spectral changes, conditional binding constants were calculated for the formation of the 1-methylimidazole adducts. […] The protecting role of PTA in ligand-exchange processes for the complex pair 7 and 8 was also reported regarding their interaction with thiols or protein NCp7 [46, 47].

[9] = Parallel artificial membrane permeability assay (PAMPA); details: for recovery: pH 7.4; for Peff, effective passive permeability: pH 7.4, 100 mM chloride, 5 h
Method: Chloride ion concentrations of 4, 24 and 100 mM were chosen according to the chloride content of the nucleus, cytosol and blood serum, respectively. […] Then parallel artificial membrane permeability assay (PAMPA) was used to estimate the ability of the complexes to penetrate membranes by passive diffusion and the effective passive permeability coefficients (Peff) obtained for complexes 1–3 are shown in Table 4 (in case of 4, there are no data due to formation of precipitate).
Distribution coefficients at physiological pH (D7.4) of the complexes were determined by the traditional shake-flask method in n-octanol/buffered aqueous solution at pH 7.40 (20 mM phosphate buffer) at various chloride concentrations and at 25.0 ± 0.2 °C using UV-vis detection as described in our former works [37, 38, 42]. PAMPA was applied for the complexes with a Gentest pre-coated PAMPA Plate System (Corning, Corning, NY, USA) [56]. Briefly, a 96-well filter plate was used as the permeation acceptor and the 96-well bottom plate was used as the permeation donor. For simplicity, PBS was used both as donor and acceptor buffer throughout this study. […] Peff values were calculated according to the equation reported by Yu et al. [57].

Sequence of ABCB1 (P-glycoprotein) efflux pump (P08183 whole entry): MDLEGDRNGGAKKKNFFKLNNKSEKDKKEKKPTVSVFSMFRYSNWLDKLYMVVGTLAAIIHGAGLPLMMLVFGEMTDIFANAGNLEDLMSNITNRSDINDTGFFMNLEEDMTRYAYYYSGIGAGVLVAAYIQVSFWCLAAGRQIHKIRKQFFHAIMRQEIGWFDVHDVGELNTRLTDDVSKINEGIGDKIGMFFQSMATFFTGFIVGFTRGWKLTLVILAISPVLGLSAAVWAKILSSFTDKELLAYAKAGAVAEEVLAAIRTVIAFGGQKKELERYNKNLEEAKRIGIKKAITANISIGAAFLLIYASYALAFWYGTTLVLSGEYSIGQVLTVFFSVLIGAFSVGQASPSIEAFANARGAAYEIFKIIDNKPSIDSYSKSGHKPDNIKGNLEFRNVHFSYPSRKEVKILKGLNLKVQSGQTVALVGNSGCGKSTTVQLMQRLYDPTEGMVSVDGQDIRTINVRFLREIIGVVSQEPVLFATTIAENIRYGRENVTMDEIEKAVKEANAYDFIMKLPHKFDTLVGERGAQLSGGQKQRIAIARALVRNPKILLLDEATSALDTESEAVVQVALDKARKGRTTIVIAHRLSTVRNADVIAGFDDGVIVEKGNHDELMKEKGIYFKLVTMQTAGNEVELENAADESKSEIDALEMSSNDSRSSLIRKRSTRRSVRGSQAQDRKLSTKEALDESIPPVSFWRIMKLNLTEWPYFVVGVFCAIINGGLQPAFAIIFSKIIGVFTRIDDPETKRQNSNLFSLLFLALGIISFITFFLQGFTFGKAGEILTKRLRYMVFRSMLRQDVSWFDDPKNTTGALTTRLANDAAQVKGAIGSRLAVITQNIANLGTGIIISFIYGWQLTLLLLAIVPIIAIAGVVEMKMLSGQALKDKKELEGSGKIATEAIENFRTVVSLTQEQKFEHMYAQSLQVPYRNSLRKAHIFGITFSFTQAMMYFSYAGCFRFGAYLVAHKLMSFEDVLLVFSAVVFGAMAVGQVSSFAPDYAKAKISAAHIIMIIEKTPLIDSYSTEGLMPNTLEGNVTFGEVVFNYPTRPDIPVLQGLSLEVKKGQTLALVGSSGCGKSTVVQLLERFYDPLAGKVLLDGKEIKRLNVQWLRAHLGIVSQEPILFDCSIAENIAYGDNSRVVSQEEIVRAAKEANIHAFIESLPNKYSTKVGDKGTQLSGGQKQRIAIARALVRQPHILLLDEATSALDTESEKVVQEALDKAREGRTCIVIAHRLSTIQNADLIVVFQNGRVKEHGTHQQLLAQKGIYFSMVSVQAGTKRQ

Compound | MIC E. coli [1] [µM] | MIC K. pneumoniae [2] [µM] | MIC S. aureus [3] [µM] | MIC E. faecalis [4] [µM] | FAR fluorescence accumulation ratio ([5]; Colo 320, 2 μM) | FAR quotient (FAR related to that of 20 μM verapamil) ([5]; Colo 320, 2 μM) [%] | FSC forward scatter count ([5]; Colo 320, 2 μM) | SSC side scatter count ([5]; Colo 320, 2 μM) | FAR fluorescence accumulation ratio ([5]; Colo 320, 20 μM) | FAR quotient (FAR related to that of 20 μM verapamil) ([5]; Colo 320, 20 μM) [%] | FSC forward scatter count ([5]; Colo 320, 20 μM) | SSC side scatter count ([5]; Colo 320, 20 μM) | FL-1 mean fluorescence of the cells ([5]; Colo 320, rhodamine 123, 2 μM) | FL-1 mean fluorescence of the cells ([5]; Colo 320, rhodamine 123, 20 μM) | IC50 [6] [µM] | S.I. MRC-5/Colo 205 [6] | IC50 [7] [µM] | S.I. MRC-5/Colo 320 [7] | LogK’ conditional binding constant of 1-methylimidazole adduct [8] | recovery [9] [%] | further results
Cc1ccc(C(C)C)cc1.O=C(C=C([O-])C(F)(F)F)c1ccc(Cl)cc1.[Cl-].[Ru+2] [complex 7] | >100 | >100 | 50 | 50 | 1.11 | 23.1 | 1988 | 946 | 1.31 | 27.3 | 1909 | 900 | 5.86 | 6.94 | 52.4 ± 2.7 | 0.51 | 29.1 ± 2 | 0.91 | – | – | –
Cc1ccc(C(C)C)cc1.[Cl-].[O-]n1ccc2ccccc2c1=S.[Ru+2] [complex 3] | >100 | >100 | 12.5 | 12.5 | – | – | – | – | – | – | – | – | – | – | 17.3 ± 3.1 | 0.44 | 10.7 ± 1.5 | 0.71 | 4.18 ± 0.27 | 8.1 | Peff, effective passive permeability [9]: 3.35 ×10⁻⁶ cm/s
C1N2CN3CN1CP(C2)C3.Cc1ccc(C(C)C)cc1.F[P-](F)(F)(F)(F)F.[O-]n1ccc2ccccc2c1=S.[Ru+2] [complex 4] | >100 | >100 | >100 | >100 | 0.82 | 17.0 | 2014 | 959 | 1.70 | 35.2 | 1977 | 973 | 4.33 | 8.95 | > 100 | <0.81 | > 100 | <0.81 | 3.64 ± 0.02 | – | –
Cc1ccc(C(C)C)cc1.[Cl-].[O-]n1ccccc1=S.[Ru+2] [complex 1] | >100 | >100 | 50 | 100 | – | – | – | – | – | – | – | – | – | – | 14 ± 0.62 | 0.15 | 3.3 ± 1.3 | 0.66 | 4.16 ± 0.45 | 1.3 | Peff, effective passive permeability [9]: 1.13 ×10⁻⁶ cm/s
C1N2CN3CN1CP(C2)C3.Cc1ccc(C(C)C)cc1.F[P-](F)(F)(F)(F)F.O=C(C=C([O-])C(F)(F)F)c1ccc(Cl)cc1.[Ru+2] [complex 8] | >100 | >100 | 50 | 100 | 0.66 | 13.8 | 1925 | 877 | 1.08 | 22.4 | 1950 | 917 | 3.51 | 5.68 | 80.6 ± 1.1 | 0.22 | 47.8 ± 7.3 | 0.37 | – | – | –
C1N2CN3CN1CP(C2)C3.Cc1ccc(C(C)C)cc1.F[P-](F)(F)(F)(F)F.[O-]n1ccccc1=S.[Ru+2] [complex 2] | >100 | >100 | >100 | >100 | 1.02 | 21.3 | 2034 | 962 | 1.02 | 21.3 | 2071 | 1024 | 5.4 | 5.41 | > 100 | – | > 100 | – | – | 15 | Peff, effective passive permeability [9]: 2.88 ×10⁻⁶ cm/s
